Patent publication US12473262B2, “Aryl hydrocarbon receptor activators” (Oregon State University, priority 2019, dated 2025)

Target: aryl hydrocarbon receptor (AhR) (Mus musculus (Mouse), UniProt P30561)
Assay: AhR ligand screening: AhRE-luciferase reporter in transfected Hepa1 cells
Type: cell-based
Details: for Fold @ 1 nM: fold change of luciferase expression at 1 nM test compound relative to vehicle (0.1% DMSO); for Fold @ 100 nM: fold change of luciferase expression at 100 nM test compound relative to vehicle (0.1% DMSO); for Fold @ 10 uM: fold change of luciferase expression at 10 uM test compound relative to vehicle (0.1% DMSO); for Fold relative to benchmark @ 100 nM: luciferase expression at 100 nM test compound relative to 100 nM benchmark compound 11-cl-BBQ
Excerpt: The AhR is a ligand-activated transcription factor that dimerizes with ARNT to regulate gene expression, and genes that are regulated by AhR ligands have AhR response elements (AhRE) in their promotor regions.
Briefly, Hepa1 cells were transfected with a reporter construct consisting of AhRE linked to luciferase. The addition of AhR ligands to the transfected cells induces luciferase production that is directly proportional to the amount of AhR activation. We used this reporter system to identify novel compounds with AhR-activating properties. Transfected Hepa1 cells were plated at a density of 1×10^4 cells/well in 100 μL of cell culture media in 96 well plates and grown overnight. […] Following incubation with the compounds, the media was removed, and cells were harvested with lysis buffer. The lysates were transferred to opaque 96 well plates, where they were assayed well-by-well for luciferase activity by injection of luciferase assay substrate with a 2 sec mixing time and 15 sec integration period on a Tropix TR717 microplate luminometer. Data were expressed as fold induction of luciferase relative to vehicle (0.1% DMSO) treated cells.

Chain of aryl hydrocarbon receptor (AhR) (P30561 10-805): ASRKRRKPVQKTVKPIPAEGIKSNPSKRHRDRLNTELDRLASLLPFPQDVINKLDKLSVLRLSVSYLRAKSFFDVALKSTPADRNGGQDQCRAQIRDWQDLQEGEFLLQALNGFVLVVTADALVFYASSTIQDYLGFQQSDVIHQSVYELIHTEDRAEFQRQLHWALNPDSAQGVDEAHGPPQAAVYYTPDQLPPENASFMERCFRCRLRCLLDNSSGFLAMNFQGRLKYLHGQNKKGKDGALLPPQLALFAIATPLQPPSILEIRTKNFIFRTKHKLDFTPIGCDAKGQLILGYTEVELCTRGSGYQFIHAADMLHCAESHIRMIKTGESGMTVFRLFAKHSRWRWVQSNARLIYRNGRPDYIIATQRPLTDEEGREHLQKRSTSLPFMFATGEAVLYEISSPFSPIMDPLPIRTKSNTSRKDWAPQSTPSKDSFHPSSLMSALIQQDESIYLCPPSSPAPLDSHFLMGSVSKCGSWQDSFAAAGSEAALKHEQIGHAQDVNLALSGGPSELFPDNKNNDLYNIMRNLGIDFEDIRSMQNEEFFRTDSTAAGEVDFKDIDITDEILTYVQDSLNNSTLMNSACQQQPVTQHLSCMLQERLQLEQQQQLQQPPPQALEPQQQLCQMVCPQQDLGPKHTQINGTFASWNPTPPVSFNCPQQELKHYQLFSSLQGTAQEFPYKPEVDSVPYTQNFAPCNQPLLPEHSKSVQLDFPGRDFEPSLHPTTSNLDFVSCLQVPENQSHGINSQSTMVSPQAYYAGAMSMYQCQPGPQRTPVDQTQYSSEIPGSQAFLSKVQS
Chain of aryl hydrocarbon receptor (AhR) (P53762 whole entry partner): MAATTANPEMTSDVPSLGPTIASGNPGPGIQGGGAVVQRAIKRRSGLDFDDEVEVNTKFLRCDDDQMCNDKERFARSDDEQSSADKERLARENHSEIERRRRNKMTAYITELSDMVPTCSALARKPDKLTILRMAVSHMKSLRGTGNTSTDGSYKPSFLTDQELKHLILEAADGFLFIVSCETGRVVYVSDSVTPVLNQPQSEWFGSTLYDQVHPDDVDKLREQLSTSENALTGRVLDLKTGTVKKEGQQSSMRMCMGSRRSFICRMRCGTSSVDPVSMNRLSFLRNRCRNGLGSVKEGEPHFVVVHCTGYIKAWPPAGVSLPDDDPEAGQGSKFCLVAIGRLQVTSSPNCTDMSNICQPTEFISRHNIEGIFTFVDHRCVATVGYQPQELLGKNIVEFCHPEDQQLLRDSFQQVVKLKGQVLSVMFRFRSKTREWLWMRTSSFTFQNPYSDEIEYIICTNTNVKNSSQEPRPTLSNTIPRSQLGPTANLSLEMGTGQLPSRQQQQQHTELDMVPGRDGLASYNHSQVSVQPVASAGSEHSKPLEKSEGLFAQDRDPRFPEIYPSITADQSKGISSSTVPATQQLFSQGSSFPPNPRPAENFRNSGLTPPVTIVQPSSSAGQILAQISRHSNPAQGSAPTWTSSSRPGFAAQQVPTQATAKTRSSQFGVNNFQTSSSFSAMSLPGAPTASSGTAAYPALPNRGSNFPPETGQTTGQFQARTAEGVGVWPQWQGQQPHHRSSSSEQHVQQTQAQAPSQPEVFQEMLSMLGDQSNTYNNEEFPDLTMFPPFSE

## O=C(c1ccccc1)n1c(-c2cccc3ccccc23)nc2cc(F)ccc21 [Compound 583]
  Fold @ 1 nM: 1 fold
  Fold @ 100 nM: 5 fold
  Fold @ 10 uM: 7 fold
  Fold relative to benchmark @ 100 nM: 0.33 fold

## O=C(c1ccccc1)n1c(-c2ccc3ccccc3c2)nc2cc(F)ccc21 [Compound 584]
  Fold @ 1 nM: 1 fold
  Fold @ 100 nM: 3 fold
  Fold @ 10 uM: 31 fold
  Fold relative to benchmark @ 100 nM: 0.2 fold

## O=C(c1ccccc1)n1c(-c2ccc3ccccc3c2)nc2ccc(F)cc21 [Compound 585]
  Fold @ 1 nM: 1 fold
  Fold @ 100 nM: 1 fold
  Fold @ 10 uM: 34 fold
  Fold relative to benchmark @ 100 nM: 0.07 fold

## O=C(c1ccccc1)n1c(-c2cc3ccccc3o2)nc2ccc(Cl)cc21 [Compound 588]
  Fold @ 1 nM: 1 fold
  Fold @ 100 nM: 5 fold
  Fold @ 10 uM: 30 fold
  Fold relative to benchmark @ 100 nM: 0.33 fold

## COc1ccc(C(=O)n2c(-c3cc4ccccc4s3)nc3cc(Cl)ccc32)cc1 [Compound 590]
  Fold @ 1 nM: 1 fold
  Fold @ 100 nM: 3 fold
  Fold @ 10 uM: 45 fold
  Fold relative to benchmark @ 100 nM: 0.2 fold

## COc1ccc(C(=O)n2c(-c3cc4ccccc4s3)nc3ccc(Cl)cc32)cc1 [Compound 591]
  Fold @ 1 nM: 2 fold
  Fold @ 100 nM: 2 fold
  Fold @ 10 uM: 38 fold
  Fold relative to benchmark @ 100 nM: 0.13 fold

## O=C(c1ccc(F)c(F)c1)n1c(-c2cccc3ccccc23)nc2cc(F)ccc21 [Compound 630]
  Fold @ 1 nM: 1 fold
  Fold @ 100 nM: 5 fold
  Fold @ 10 uM: 9 fold
  Fold relative to benchmark @ 100 nM: 0.56 fold

## Cc1ccc(S(=O)(=O)n2c(-c3cccc4ccccc34)nc3cc(F)ccc32)cc1 [Compound 631, 5-fluoro-2-(naphthalen-1-yl)-1-tosyl-1H-benzo[d]imidazole]
  Fold @ 1 nM: 1 fold
  Fold @ 100 nM: 1 fold
  Fold @ 10 uM: 7 fold
  Fold relative to benchmark @ 100 nM: 0.11 fold

## COc1ccc(C(=O)n2c(-c3cc4ccccc4s3)nc3cc(F)ccc32)cc1 [Compound 634]
  Fold @ 1 nM: 1 fold
  Fold @ 100 nM: 2 fold
  Fold @ 10 uM: 22 fold
  Fold relative to benchmark @ 100 nM: 0.22 fold

## COc1ccc(C(=O)n2c(-c3cc4ccccc4s3)nc3ccc(F)cc32)cc1 [Compound 635]
  Fold @ 1 nM: 1 fold
  Fold @ 100 nM: 2 fold
  Fold @ 10 uM: 24 fold
  Fold relative to benchmark @ 100 nM: 0.22 fold

## COc1ccc2c(c1)nc(-c1cccc3ccccc13)n2C(=O)c1ccccc1 [Compound 639]
  Fold @ 1 nM: 1 fold
  Fold @ 100 nM: 1 fold
  Fold @ 10 uM: 5 fold
  Fold relative to benchmark @ 100 nM: 0.11 fold

## O=C(c1ccc(F)c(F)c1)n1c(-c2c3ccccc3cc3ccccc23)nc2cc(Cl)ccc21 [Compound 641]
  Fold @ 1 nM: 1 fold
  Fold @ 100 nM: 1 fold
  Fold @ 10 uM: 21 fold
  Fold relative to benchmark @ 100 nM: 0.11 fold

## O=C(c1ccc(F)c(F)c1)n1c(-c2c3ccccc3cc3ccccc23)nc2ccc(Cl)cc21 [Compound 642]
  Fold @ 1 nM: 1 fold
  Fold @ 100 nM: 1 fold
  Fold @ 10 uM: 27 fold
  Fold relative to benchmark @ 100 nM: 0.11 fold
